Assay: Rat oral single-dose pharmacokinetic study
Type: in vivo
Settings: 100 mg/kg single oral gavage
Experimental: • 1. Male Sprague-Dowley rats received single oral gavage of Compound EH, 100 mg/kg, and plasma was collected at certain times. • 2. Rat plasma was stored at −80° C. until the day of analysis. • 3. Samples were thawed on 37° C. bath for 5 min and vortexed at top speed for 10 sec. • 4. Rat plasma, 0.1 mL was mixed with 0.2 mL Acetonitrile, vortexed 1 min, spun down 14000 rpm, 17000 g, at 4° C., for 25 min. • 5. Supernatants were filtered through 0.45 micron, 4 mm, PTFE membrane syringe filter (Phenomenex #AF0-3102-52), and 15 microL were injected and resolved on Luna 3 micron, 100 A pore, C8(2), 150×3 mm, reverse phase column (Phenomenex#00F-4248-YO, SN#259151-7) in 50 min linear gradient from 40% to 69% of (0.1% Formic Acid, 89.9% Acetonitrile, 10% Methanol) at 0.25 mL/min, 107 bar, 37° C. column temperature, method 406975M1, Sequence 0226-09A, Agilent 1100 LC-MS.
All samples were run in duplicate, 210 nm and 230 nm Absorbances, Negative and Positive ionization spectrograms recorded.
Step 1. Rat plasma from V2 and V3 animals (“vehicle”, pooled), 0.19 mL, was mixed with 0.01 mL 20× stock of Compound EH in Methanol to make 500 microM, 250 microM, 125 microM, . . . , concentrations of Compound EH in plasma.
For example: 190 microL plasma+10 microL of 10 mM Compound EH in methanol=0.2 mL plasma with 500 microM Compound EH.
Step 2. Samples from step 1 were vortexed for 10 sec at top speed.
Step 3. 0.4 mL of acetonitrile was added to all samples from Step 2, and all vials were vortexed at top speed for 1 min.
Step 4. All samples from step 3 were spun down 14000 rpm, 17000 g, at 4° C., for 25 min.
Step 5. Supernatants were filtered through 0.45 micron, 4 mm, PTFE membrane syringe filter (Phenomenex #AF0-3102-52), 15 microL were injected and resolved on Luna 3 micron, 100 A pore, C8(2), 150×3 mm, reverse phase column

concentration at 0 h (male, Sprague-Dawley, rat, plasma, time 0 HR, read-out: Compound EH concentration in rat plasma): 0 nM | concentration at 0.25 h (male, Sprague-Dawley, rat, plasma, time 0.25 HR, read-out: Compound EH concentration in rat plasma): 349 µM | concentration at 0.5 h (male, Sprague-Dawley, rat, plasma, time 0.5 HR, read-out: Compound EH concentration in rat plasma): 723 µM | concentration at 2 h (male, Sprague-Dawley, rat, plasma, time 2 HR, read-out: Compound EH concentration in rat plasma): 79 µM | concentration at 4 h (male, Sprague-Dawley, rat, plasma, time 4 HR, read-out: Compound EH concentration in rat plasma): 126 µM | concentration at 6 h (male, Sprague-Dawley, rat, plasma, time 6 HR, read-out: Compound EH concentration in rat plasma): 112 µM | concentration at 8 h (male, Sprague-Dawley, rat, plasma, time 8 HR, read-out: Compound EH concentration in rat plasma): 48 µM | concentration at 24 h (male, Sprague-Dawley, rat, plasma, time 24 HR, read-out: Compound EH concentration in rat plasma): 0 nM | Cmax (male, Sprague-Dawley, rat plasma): 723 µM | AUC(0-24) (rat plasma): 1765 µM·h
Structure (SMILES): Cc1ccc(CC(=O)O)cc1OCc1c(C)cccc1C [Compound EH, 2-(3-(2,6-Dimethylbenzyloxy)-4-methylphenyl)acetic acid]
